Measurements taken from PubChem BioAssay (NCI).
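GI50: concentration for 50% inhibition of growth. At the TGI there is no net growth.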

How the values were obtained:
Test in all cases: NCI tumour cell line growth inhibition, 384-well format
RPMI-8226 leukemia = test system: RPMI-8226 leukemia
HT29 colon = test system: HT29 colon
LOX IMVI melanoma = test system: LOX IMVI melanoma
OVCAR-3 ovarian = test system: OVCAR-3 ovarian
A498 renal = test system: A498 renal
A549 NSCLC = test system: A549 NSCLC
SNB-19 CNS = test system: SNB-19 CNS
SK-MEL-5 melanoma = test system: SK-MEL-5 melanoma
U251 glioblastoma = test system: U251 glioblastoma
HCT-15 colon = test system: HCT-15 colon
NCI-H522 lung = test system: NCI-H522 lung
MCF7 breast = test system: MCF7 breast
HCC-2998 colon = test system: HCC-2998 colon
SNB-75 CNS = test system: SNB-75 CNS
ACHN renal = test system: ACHN renal
HOP-92 NSCLC = test system: HOP-92 NSCLC
MALME-3M melanoma = test system: MALME-3M melanoma
PC-3 prostate = test system: PC-3 prostate
MDA-MB-468 breast = test system: MDA-MB-468 breast
CCRF-CEM leukemia = test system: CCRF-CEM leukemia
M14 melanoma = test system: M14 melanoma
786-0 renal = test system: 786-0 renal
RXF 393 renal = test system: RXF 393 renal
SF-268 CNS = test system: SF-268 CNS
MDA-MB-435 melanoma = test system: MDA-MB-435 melanoma
HCT-116 colon = test system: HCT-116 colon
SK-MEL-28 melanoma = test system: SK-MEL-28 melanoma
NCI/ADR-RES ovarian = test system: NCI/ADR-RES ovarian
NCI-H460 NSCLC = test system: NCI-H460 NSCLC
IGROV1 ovarian = test system: IGROV1 ovarian
SK-OV-3 ovarian = test system: SK-OV-3 ovarian
TK-10 renal = test system: TK-10 renal
NCI-H226 lung = test system: NCI-H226 lung
SN12C renal = test system: SN12C renal
CAKI-1 renal = test system: CAKI-1 renal
MOLT-4 leukemia = test system: MOLT-4 leukemia
SF-295 CNS = test system: SF-295 CNS
OVCAR-8 ovarian = test system: OVCAR-8 ovarian
UO-31 renal = test system: UO-31 renal
KM12 colon = test system: KM12 colon
EKVX NSCLC = test system: EKVX NSCLC
OVCAR-4 ovarian = test system: OVCAR-4 ovarian
OVCAR-5 ovarian = test system: OVCAR-5 ovarian
HL-60(TB) leukemia = test system: HL-60(TB) leukemia
T-47D breast = test system: T-47D breast
DU-145 prostate = test system: DU-145 prostate
BT-549 breast = test system: BT-549 breast
SW-620 colon = test system: SW-620 colon
HOP-62 NSCLC = test system: HOP-62 NSCLC
NCI-H322M lung = test system: NCI-H322M lung
SR leukemia = test system: SR leukemia
COLO 205 colon = test system: COLO 205 colon
NCI-H23 lung = test system: NCI-H23 lung
SF-539 CNS = test system: SF-539 CNS
MDA-MB-231 breast = test system: MDA-MB-231 breast
K-562 leukemia = test system: K-562 leukemia
HS 578T breast = test system: HS 578T breast
UACC-257 melanoma = test system: UACC-257 melanoma

Molecule `CC(C)(C)c1[nH]cnc1/C=c1\[nH]c(=O)/c(=C/c2ccccc2)[nH]c1=O` has a GI50 (RPMI-8226 leukemia) of under 10 nM, a TGI (RPMI-8226 leukemia) of under 10 nM and a GI50 (HT29 colon) of under 10 nM. It also gave a TGI (HT29 colon) of 12900 nM, a GI50 (LOX IMVI melanoma) of under 10 nM and a TGI (LOX IMVI melanoma) of 30.5 nM. It also gave a GI50 (OVCAR-3 ovarian) of under 10 nM, a TGI (OVCAR-3 ovarian) of under 10 nM and a GI50 (A498 renal) of under 10 nM. The TGI (A498 renal) was 265 nM, the GI50 (A549 NSCLC) was under 10 nM and the TGI (A549 NSCLC) was 16700 nM. The GI50 (SNB-19 CNS) was under 10 nM, the TGI (SNB-19 CNS) was 11000 nM and the GI50 (SK-MEL-5 melanoma) was under 10 nM. It also gave a TGI (SK-MEL-5 melanoma) of under 10 nM, a GI50 (U251 glioblastoma) of under 10 nM and a TGI (U251 glioblastoma) of 16.8 nM. The GI50 (HCT-15 colon) was under 10 nM, the TGI (HCT-15 colon) was 22.5 nM and the GI50 (NCI-H522 lung) was under 10 nM. For the same molecule, the TGI (NCI-H522 lung) was under 10 nM, the GI50 (MCF7 breast) was under 10 nM and the TGI (MCF7 breast) was 10300 nM. The GI50 (HCC-2998 colon) was under 10 nM, the TGI (HCC-2998 colon) was 22.1 nM and the GI50 (SNB-75 CNS) was under 10 nM. The TGI (SNB-75 CNS) was 78.3 nM, the GI50 (ACHN renal) was under 10 nM and the TGI (ACHN renal) was 13300 nM. The GI50 (HOP-92 NSCLC) was under 10 nM, the TGI (HOP-92 NSCLC) was 2810 nM and the GI50 (MALME-3M melanoma) was under 10 nM. It also gave a TGI (MALME-3M melanoma) of 16500 nM, a GI50 (PC-3 prostate) of under 10 nM and a TGI (PC-3 prostate) of 14900 nM. It also gave a GI50 (MDA-MB-468 breast) of 10.3 nM, a TGI (MDA-MB-468 breast) of 24.6 nM and a GI50 (CCRF-CEM leukemia) of under 10 nM. The TGI (CCRF-CEM leukemia) was under 10 nM, the GI50 (M14 melanoma) was under 10 nM and the TGI (M14 melanoma) was under 10 nM. It also gave a GI50 ([…]-0 renal) of under 10 nM, a TGI (786-0 renal) of 27 nM and a GI50 (RXF 393 renal) of under 10 nM. The TGI (RXF 393 renal) was under 10 nM, the GI50 (SF-268 CNS) was under 10 nM and the TGI (SF-268 CNS) was 49.1 nM. For the same molecule, the GI50 (MDA-MB-435 melanoma) was under 10 nM, the TGI (MDA-MB-435 melanoma) was under 10 nM and the GI50 (HCT-116 colon) was under 10 nM. It also gave a TGI (HCT-116 colon) of 39.3 nM, a GI50 (SK-MEL-28 melanoma) of 1750 nM and a TGI (SK-MEL-28 melanoma) of 20400 nM. The GI50 (NCI/ADR-RES ovarian) was under 10 nM, the TGI (NCI/ADR-RES ovarian) was under 10 nM and the GI50 (NCI-H460 NSCLC) was under 10 nM. The TGI (NCI-H460 NSCLC) was under 10 nM, the GI50 (IGROV1 ovarian) was under 10 nM and the TGI (IGROV1 ovarian) was 10200 nM. The GI50 (SK-OV-3 ovarian) was under 10 nM, the TGI (SK-OV-3 ovarian) was 746 nM and the GI50 (TK-10 renal) was under 10 nM. The TGI (TK-10 renal) was 16400 nM, the GI50 (NCI-H226 lung) was under 10 nM and the TGI (NCI-H226 lung) was 26.2 nM. For the same molecule, the GI50 (SN12C renal) was under 10 nM, the TGI (SN12C renal) was 4230 nM and the GI50 (CAKI-1 renal) was under 10 nM. For the same molecule, the TGI (CAKI-1 renal) was 13000 nM, the GI50 (MOLT-4 leukemia) was under 10 nM and the TGI (MOLT-4 leukemia) was under 10 nM. For the same molecule, the GI50 (SF-295 CNS) was under 10 nM, the TGI (SF-295 CNS) was under 10 nM and the GI50 (OVCAR-8 ovarian) was under 10 nM. It also gave a TGI (OVCAR-8 ovarian) of 15.9 nM, a GI50 (UO-31 renal) of under 10 nM and a TGI (UO-31 renal) of 14500 nM. The GI50 (KM12 colon) was under 10 nM, the TGI (KM12 colon) was 1250 nM and the GI50 (EKVX NSCLC) was under 10 nM. It also gave a TGI (EKVX NSCLC) of 13000 nM, a GI50 (OVCAR-4 ovarian) of under 10 nM and a TGI (OVCAR-4 ovarian) of 3720 nM. The GI50 (OVCAR-5 ovarian) was 10900 nM, the TGI (OVCAR-5 ovarian) was 32900 nM and the GI50 (HL-60(TB) leukemia) was under 10 nM. For the same molecule, the TGI (HL-60(TB) leukemia) was under 10 nM, the GI50 (T-47D breast) was under 10 nM and the TGI (T-47D breast) was 7150 nM. For the same molecule, the GI50 (DU-145 prostate) was under 10 nM, the TGI (DU-145 prostate) was 21.9 nM and the GI50 (BT-549 breast) was under 10 nM. It also gave a TGI (BT-549 breast) of 25.5 nM, a GI50 (SW-620 colon) of under 10 nM and a TGI (SW-620 colon) of 17500 nM. For the same molecule, the GI50 (HOP-62 NSCLC) was under 10 nM, the TGI (HOP-62 NSCLC) was 304 nM and the GI50 (NCI-H322M lung) was under 10 nM. It also gave a TGI (NCI-H322M lung) of 15200 nM, a GI50 (SR leukemia) of under 10 nM and a TGI (SR leukemia) of under 10 nM. It also gave a GI50 (COLO 205 colon) of under 10 nM, a TGI (COLO 205 colon) of under 10 nM and a GI50 (NCI-H23 lung) of under 10 nM. The TGI (NCI-H23 lung) was under 10 nM, the GI50 (SF-539 CNS) was under 10 nM and the TGI (SF-539 CNS) was under 10 nM. The GI50 (MDA-MB-231 breast) was 10.7 nM, the TGI (MDA-MB-231 breast) was 19700 nM and the GI50 (K-562 leukemia) was under 10 nM. For the same molecule, the TGI (K-562 leukemia) was under 10 nM, the GI50 (HS 578T breast) was under 10 nM and the TGI (HS 578T breast) was under 10 nM. The GI50 (UACC-257 melanoma) was under 10 nM and the TGI (UACC-257 melanoma) was 18800 nM.
